Source: publication PMC11352409, “Subtype-Specific Ligand Binding and Activation Gating in Homomeric and Heteromeric P2X Receptors” (Biomolecules, 2024)
Where “and” joins values, the source holds several entries; their conditions need not be identical. Identical values can stand only once.

Tests used:
Assay type in all cases: cell-based
[1] = molecular target: T1, human P2X2 receptors (Homo sapiens, UniProt Q9UBL9); experiment: Whole-cell patch-clamp concentration-activation, HEK293 cells stably expressing hP2X2; conditions: for Hill: hP2X2, Hill coefficient of concentration-activation fit; for Effect (Fold in ATP Potency): hP2X2, relative to ATP; for Effect (Fold in ATP Efficacy): hP2X2, relative to current at 100 µM ATP; for EC50: hP2X2, whole-cell, -50 mV, divalent-cation-free bath with 10 mM EGTA, normalised to 100 µM ATP
T1 construct: expressed in transfected cells
T1 sequence (Q9UBL9 1-404 isoform Q9UBL9-2): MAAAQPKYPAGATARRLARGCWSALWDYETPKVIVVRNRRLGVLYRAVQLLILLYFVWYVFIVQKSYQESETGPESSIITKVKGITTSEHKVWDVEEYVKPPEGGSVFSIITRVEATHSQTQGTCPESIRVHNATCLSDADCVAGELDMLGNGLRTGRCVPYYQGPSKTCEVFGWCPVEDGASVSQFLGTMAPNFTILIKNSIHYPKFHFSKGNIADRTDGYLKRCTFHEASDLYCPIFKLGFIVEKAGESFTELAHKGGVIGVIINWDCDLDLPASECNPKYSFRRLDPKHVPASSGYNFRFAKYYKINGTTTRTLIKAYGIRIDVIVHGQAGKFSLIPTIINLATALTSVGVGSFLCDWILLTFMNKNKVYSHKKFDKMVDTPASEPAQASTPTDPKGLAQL
Protocol: (§1) Human P2X receptors were expressed from HEK293 cell lines containing an inducible promoter system (Flp-In-T-REx 293, Invitrogen, Waltham, MA, USA). The used cell lines were: hP2X2 B (RRID: AC line CVCL_D6U1), hP2X3 (RRID: AC line CVCL_D6U3), and hP2X2/3 (RRID: AC line CVCL_D6U2). The cells were cultured in MEM supplemented with non-essential amino acids (Gibco, Waltham, MA, USA), 10% FCS, and antibiotics, according to the manufacturer’s instructions. For stable cell lines, Flp-In-T-REx 293 cells were transfected using the calcium phosphate method with a mixture of plasmids (0.3 µg pcDNA5/FRT/TO P2X gene and 1.5 µg pOG44) and selected for hygromycin resistance. The cells were seeded on glass coverslips for electrophysiological measurements and used 24–48 h after tetracycline induction ([…]).
(§2) Membrane currents were recorded with a standard patch-clamp technique in the whole-cell configuration. The patch pipettes were pulled from borosilicate glass (ID 1.0 mm, OD 2.0 mm; VITROCOM, Mountain Lakes, NJ, USA) using a micropipette puller (P-97, Sutter Instrument, Novato, CA, USA). The pipettes were filled with intracellular solution containing (mM) 142 NaCl, 5 BAPTA, 5 EGTA, and 10 HEPES at pH 7.4. The pipette resistance was from 2.0 to 6.0 MΩ. The bath solution contained (mM) 142 NaCl, 10 EGTA, 10 HEPES, and 10 glucose at pH 7.4. To increase the speed of recovery from the hP2X3 receptors, we additionally used a bath solution containing (mM) 142 NaCl, 10 HEPES, 10 glucose, 2 CaCl2, and 1 MgCl2. The cells were lifted for recording from the chamber bottom by the patch pipette and positioned in front of the outlet of the application pipette.
(§3) Solutions switches were carried out with the application pipette that had three barrels (inner diameter ~600 µm, Warner Instruments) controlled by a step motor (SF-77B, Warner Instruments). The speed of the laminar solution flow out of the barrels was estimated to be 2–5 cm/s. One barrel contained a control solution and another was connected to a solution selector (Vici Valco Instruments), which allowed us to apply different test solutions by exchanging the solution during the interval (60 sec for P2X2 and P2X2/3 receptors, 180 s for P2X3 receptors) of applying the control solution. Cells expressing hP2X3 were washed with 3 Units/mL apyrase for 30 min to remove ATP. To ensure the comparability of the data points between each application, we rinsed hP2X3 with the following solution for 3 min after each ATP application (mM): 142 NaCl, 10 HEPES, 10 glucose, 2 CaCl2, and 1 MgCl2 at pH 7.4. After sufficient recovery, we switched to the bath solution for 10 s and then to the solution of interest. The speed of the switch around a whole cell was estimated to be below 10 ms by switching between different salt solutions.
(§4) The saturation of activation was determined with ATP at 100 µM. The currents were recorded with a HEKA EPC 10 amplifier in combination with the patchmaster software. The sampling rate was 10 kHz and the recordings were on-line filtered at 2.9 kHz using a four-pole Bessel filter. The currents were recorded at a constant holding potential of −50 mV and the series resistance was compensated with the patchmaster software up to 80%.
(§5) The concentration–activation relationships from whole-cell measurements in the HEK293 cells were obtained from the maximum currents during ATP application. These current amplitudes were normalised with respect to the current at saturating ATP (100 µM) and the resulting data points were fitted I/ImaxATP = Amp/(1 + (EC50/[X])^h) (1) with the Origin 2019® software using a non-linear curve fitting routine. I is the actual current amplitude and ImaxATP is the maximum current amplitude at saturating ATP. The amplitude Amp is the efficacy of the respective ligands. EC50 is the ligand concentration generating the half-maximum current and h is the respective Hill coefficient. [X] is the actual concentration of ATP to be tested. […]

[2] = molecular target: T2, human P2X3 receptors (Homo sapiens, UniProt P56373); experiment: Whole-cell patch-clamp concentration-activation, HEK293 cells stably expressing hP2X3; conditions: for Hill: hP2X3, Hill coefficient of concentration-activation fit; for Effect (Fold in ATP Potency): hP2X3, relative to ATP; for Effect (Fold in ATP Efficacy): hP2X3, relative to current at 100 µM ATP; for EC50: hP2X3, whole-cell, -50 mV, divalent-cation-free bath with 10 mM EGTA, normalised to 100 µM ATP
T2 construct: expressed in transfected cells
T2 sequence (P56373 1-397): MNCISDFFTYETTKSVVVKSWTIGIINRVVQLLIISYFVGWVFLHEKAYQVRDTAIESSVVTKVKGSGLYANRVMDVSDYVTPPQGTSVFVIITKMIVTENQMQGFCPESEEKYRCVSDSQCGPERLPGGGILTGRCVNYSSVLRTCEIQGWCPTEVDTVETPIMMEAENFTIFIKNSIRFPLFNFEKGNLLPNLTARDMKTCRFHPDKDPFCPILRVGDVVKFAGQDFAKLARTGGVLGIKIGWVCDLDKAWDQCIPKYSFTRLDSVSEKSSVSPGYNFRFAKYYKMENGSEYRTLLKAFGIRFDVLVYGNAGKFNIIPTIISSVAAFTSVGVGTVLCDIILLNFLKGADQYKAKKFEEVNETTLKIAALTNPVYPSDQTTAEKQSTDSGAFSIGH
Protocol: as §1, §2, §3, §4, §5

[3] = molecular target: T3, human P2X2/3 receptors (Homo sapiens, UniProt P56373+Q9UBL9); experiment: Whole-cell patch-clamp concentration-activation, HEK293 cells stably expressing hP2X2/3
T3 construct: expressed in transfected cells
T3 sequence (Q9UBL9 1-404 isoform Q9UBL9-2): T1 sequence (Q9UBL9 1-404 isoform Q9UBL9-2)
T3 sequence (P56373 1-397): T2 sequence (P56373 1-397)
Protocol: as §1, §2, §3, §4, §5

| Structure (SMILES) | Current response in presence of Mg2+ ([1]; hP2X2, 0.3 µM ATP with 1 mM MgCl2 (27.5 nM ATP4- + 272.5 nM Mg2+ATP)) | Hill [1] | Effect (Fold in ATP Potency) [1] [fold] | Effect (Fold in ATP Efficacy) [1] [fold] | EC50 [1] | Hill [2] | Effect (Fold in ATP Potency) [2] [fold] | Effect (Fold in ATP Efficacy) [2] [fold] | EC50 [2] [µM] | Hill ([3]; hP2X2/3, Hill coefficient of concentration-activation fit) | Effect (Fold in ATP Potency) ([3]; hP2X2/3, relative to ATP) [fold] | Effect (Fold in ATP Efficacy) ([3]; hP2X2/3, relative to current at 100 µM ATP) [fold] | EC50 ([3]; hP2X2/3, whole-cell, -50 mV, divalent-cation-free bath with 10 mM EGTA, normalised to 100 µM ATP) [µM] | Agonist behaviour (current response) ([1]; hP2X2, result in words) |
| --- | --- | --- | --- | --- | --- | --- | --- | --- | --- | --- | --- | --- | --- | --- |
| Nc1ncnc2c1ncn2[C@@H]1O[C@H](COP(=O)(O)OP(=O)(O)OP(=O)(O)O)[C@@H](O)[C@H]1O [ATP] | completely abolished | 1.1 ± 0.1 | 1 | 1 | 0.7 ± 0.1 µM | 1.3 ± 0.2 | 1 | 1 | 1.1 ± 0.1 | 0.9 ± 0.1 | 1 | 1 | 2.7 ± 0.4 |  |
| Nc1ncnc2c1ncn2[C@@H]1O[C@H](COP(=O)(O)CP(=O)(O)OP(=O)(O)O)[C@@H](O)[C@H]1O [α,βMe-ATP, αβmethylene-ATP] |  | 1.7 ± 1.5 | 0.1 | 0.1 | ~6.8 µM and 6.8 µM | 1.6 ± 0.7 | 0.1 | 1.9 | 9.6 ± 3.3 |  |  |  |  | only partially |
